Experiments:
HCT-116 cells [1] = experiment: Annexin V-Alexa 488 staining; assay type: cell-based; conditions: 2 uM and 4 uM, 24 hr
Experimental: The following protocol was followed for this example. […] Incubate o/n or up to 24 hrs at 37° C. in CO2 incubator. […] Keep one or two untreated plates (medium only) as control plates. […] Harvest cells (collect attached as well as floating cells). Wash cells twice with cold PBS. Re-suspend cells in 1× Annexin binding buffer.
Count cells and dilute in 1× Annexin binding buffer to ˜1×10^6 cells/0.1 ml, preparing a sufficient volume to have 100 μl per assay. Add 5 μl of the Annexin V conjugate to each 100 μl of cell suspension. Add 4 μl of propidium iodide solution (stock=1 mg/ml) to each 100 μl of cell suspension. Incubate sample at RT for 15 minutes. Add 400 μl Annexin binding buffer, mix gently and keep samples on ice. Analyze stained cells immediately by flow cytometry.

c-MYC mRNA = c-MYC mRNA expression in tumor samples by QPCR; assay type: in vivo, mice; conditions: HCT-116
Experimental: CX-3543 was tested against a number of cancer xenograft models to determine the in vivo efficacy. HCT-116 and PC-3 tumor-bearing nu/nu or MiaPaCa tumor-bearing SCID mice were administered reference and testing compounds on schedules indicated in figure legends. Tumor measurements were taken with calipers every other day or twice a week starting from the first day of dosing and body weights were measured at the same time points. Tumor volumes were calculated from the standard formula, W^2×L/2. c-MYC mRNA expression was measured with QPCR from all tumor samples following the final dose. 18S ribosomal RNA was used as a housekeeper and also quantified with QPCR.

topoisomerase II = experiment: Topoisomerase-II poison assay; assay type: biochemical
Source text: FIG. 7 illustrates data from a toposiomerase-II poison assay, using VP-16 (Etoposide) as a control Topoisomerase-II poison.

HCT-116 cells [2] = experiment: DNA cell cycle analysis; assay type: cell-based; conditions: serum-starved HCT-116 cells, 24 hr, 1 to 5 um
Experimental: The following protocol was followed in this example. Seed 1.5-2.0×10^6 cells/10 cm dish (seed one extra dish for unstained cells). Incubate cells in 37° C. humidified 5% CO2 incubator for 24 hours. For synchronizing cells in a low growth state to make cells quiescent, remove media and rinse once with serum-free media, add 10 ml of serum-free media to each dish. Incubate the cells for 24 hr in a 37° C. humidified 5% CO2 incubator. Remove media and add treatment (diluted in serum contained media, 10 ml): 1-5 μM CX-3543 plus control. Incubate the cells for 24 hr in a 37° C. humidified 5% CO2 incubator.
To trypsinize/isolate cells, remove treatment. Add 3 ml trypsin/EDTA solution. Keep floating cells and combine with attached cells. Incubate for 5 min in a 37° C. humidified 5% CO2 incubator. Add 3 ml media (containing FBS) to wells and pipette into centrifuge tube. Centrifuge at 1000 rpm for 5 minutes. Decant supernatant and re-suspend pellet in 2-3 ml PBS. Count cells and wash cells once by putting 2×10^6 cells/tube, adding 2 ml PBS and centrifuging at 1000 rpm for 5 minutes. Re-suspend pelleted cells in 0.3 ml cold PBS.
To fix cells, gently add 0.7 ml ice cold 70% ethanol drop wise to tube containing 0.3 ml of cell suspension in PBS while vortexing. Leave on Ice for one hour (or up to a few days at 4C). Centrifuge at 1000 rpm for 5 minutes. Wash one time with cold PBS (1-2 ml). […]

With `CN1CCCC1CCNC(=O)c1cn2c3c(c(N4CCC(c5cnccn5)C4)c(F)cc3c1=O)Oc1cc3ccccc3cc1-2` (stereo not drawn) [CX-3543] the “staining by a dye positive for Annexin V externalization” value (HCT-116 cells [1]) was “significant increased staining”, the “lowering of c-Myc mRNA expression relative to control (18s rRNA) in tumor tissue” value (c-MYC mRNA; 20 mg/kg group) was 85% and the “c-Myc mRNA expression relative to control (18s rRNA) in tumor tissue” value (c-MYC mRNA; 10, 15 and 20 mg/kg) was “dose-dependent lowering”. For the same compound, the “inhibitory activity against topoisomerase II” value (topoisomerase II) was “not to be an inhibitor or poison”, the “concentration up to which no topoisomerase dependent strand breaks were induced” value (topoisomerase II; supercoiled DNA, FIG. 7) was greater than 100 µM and the “effect on the distribution of cells throughout the cell cycle” value (HCT-116 cells [2]) was “no observable effect”.
